From paper PMC9856672, “SGC-CAMKK2-1: A Chemical Probe for CAMKK2” (Cells, 2023) come the findings set out here.

Holding throughout (assay type): binding
Assay [1] concerns the target T1, MEK6 (Homo sapiens, UniProt P52564).
T1 construct: purchased Eurofins DiscoverX KINOMEscan
Nature of the assay: KINOMEscan 1 μM, MEK6. The conditions noted are these: 1000 nM; Entrez MAP2K6; read-out: Percent Control. An excerpt:
(§1) Supplement cells-12-00287-s001.zip/File S2. KinomeScan data for the CAMKK2 probe and negative control.xlsx, sheet "SGC-CAMKK2-1" | column: Percent Control

In assay [2] the target is T2, AURKC (Homo sapiens, UniProt Q9UQB9).
T2 construct: purchased Eurofins DiscoverX KINOMEscan
Nature of the assay: KINOMEscan 1 μM, AURKC. The conditions noted are these: 1000 nM; Entrez AURKC; read-out: Percent Control.
From the text: as §1

Assay [3] concerns the target T3, RSK2(Kin.Dom.1-N-terminal) (Homo sapiens, UniProt P51812).
T3 construct: RSK2(Kin.Dom.1-N-terminal); purchased Eurofins DiscoverX KINOMEscan
The assay can be described thus: KINOMEscan at 1 μM, RSK2(Kin.Dom.1-N-terminal). The conditions noted are these: 1000 nM, read-out: Percent Control. An excerpt: (§2) Supplement cells-12-00287-s001.zip/File S2. KinomeScan data for the CAMKK2 probe and negative control.xlsx, sheet "SGC-CAMKK2-1N" | column: Percent Control

The target of assay [4] is T4, INSRR (Homo sapiens, UniProt P14616).
T4 construct: purchased Eurofins DiscoverX KINOMEscan
The assay can be described thus: KINOMEscan at 1 μM, INSRR. Conditions: 1000 nM, read-out: Percent Control.
From the text: as §2

Structures are written as SMILES.

T3 sequence (P51812 1-397 limits assumed): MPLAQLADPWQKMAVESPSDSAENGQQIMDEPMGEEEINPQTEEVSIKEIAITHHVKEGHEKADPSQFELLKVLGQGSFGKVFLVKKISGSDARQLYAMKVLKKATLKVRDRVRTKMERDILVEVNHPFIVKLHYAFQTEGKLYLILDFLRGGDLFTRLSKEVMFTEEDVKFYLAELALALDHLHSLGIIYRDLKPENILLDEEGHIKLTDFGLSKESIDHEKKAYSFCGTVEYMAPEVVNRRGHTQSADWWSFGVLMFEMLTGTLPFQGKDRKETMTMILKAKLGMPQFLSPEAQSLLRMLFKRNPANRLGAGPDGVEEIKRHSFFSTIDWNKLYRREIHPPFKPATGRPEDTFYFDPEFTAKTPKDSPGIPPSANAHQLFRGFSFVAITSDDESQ
T4 sequence (P14616 27-1297): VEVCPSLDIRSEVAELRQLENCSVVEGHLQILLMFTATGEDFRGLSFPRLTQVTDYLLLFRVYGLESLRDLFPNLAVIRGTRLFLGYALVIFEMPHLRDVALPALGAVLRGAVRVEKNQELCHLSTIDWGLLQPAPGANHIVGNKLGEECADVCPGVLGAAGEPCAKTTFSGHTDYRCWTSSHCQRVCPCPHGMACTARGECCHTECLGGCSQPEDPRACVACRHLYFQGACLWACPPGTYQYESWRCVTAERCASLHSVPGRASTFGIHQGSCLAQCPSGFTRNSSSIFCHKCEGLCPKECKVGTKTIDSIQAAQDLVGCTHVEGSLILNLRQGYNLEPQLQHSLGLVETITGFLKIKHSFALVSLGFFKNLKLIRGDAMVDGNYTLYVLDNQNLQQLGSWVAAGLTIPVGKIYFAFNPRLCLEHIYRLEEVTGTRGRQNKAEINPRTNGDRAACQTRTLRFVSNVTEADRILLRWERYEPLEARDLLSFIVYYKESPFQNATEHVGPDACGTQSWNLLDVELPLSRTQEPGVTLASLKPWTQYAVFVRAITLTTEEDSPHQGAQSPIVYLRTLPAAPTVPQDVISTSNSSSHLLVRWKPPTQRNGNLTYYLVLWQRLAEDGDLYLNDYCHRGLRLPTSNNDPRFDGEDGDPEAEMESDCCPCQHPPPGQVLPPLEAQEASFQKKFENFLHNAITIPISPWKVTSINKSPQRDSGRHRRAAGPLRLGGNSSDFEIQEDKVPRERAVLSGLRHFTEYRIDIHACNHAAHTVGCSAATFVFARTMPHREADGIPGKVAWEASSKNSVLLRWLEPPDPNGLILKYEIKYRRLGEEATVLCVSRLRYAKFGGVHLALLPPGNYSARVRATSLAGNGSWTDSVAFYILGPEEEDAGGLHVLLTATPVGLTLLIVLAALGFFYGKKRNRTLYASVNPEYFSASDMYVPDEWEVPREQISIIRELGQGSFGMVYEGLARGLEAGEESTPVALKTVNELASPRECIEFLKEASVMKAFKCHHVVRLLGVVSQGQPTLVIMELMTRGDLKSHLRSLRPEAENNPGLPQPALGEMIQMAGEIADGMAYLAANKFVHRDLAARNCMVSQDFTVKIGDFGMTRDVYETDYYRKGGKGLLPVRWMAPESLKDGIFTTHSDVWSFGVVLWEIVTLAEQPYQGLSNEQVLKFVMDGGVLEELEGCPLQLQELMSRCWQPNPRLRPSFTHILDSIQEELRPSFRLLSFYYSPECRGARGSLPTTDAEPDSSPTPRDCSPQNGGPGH
T1 sequence (P52564 whole entry): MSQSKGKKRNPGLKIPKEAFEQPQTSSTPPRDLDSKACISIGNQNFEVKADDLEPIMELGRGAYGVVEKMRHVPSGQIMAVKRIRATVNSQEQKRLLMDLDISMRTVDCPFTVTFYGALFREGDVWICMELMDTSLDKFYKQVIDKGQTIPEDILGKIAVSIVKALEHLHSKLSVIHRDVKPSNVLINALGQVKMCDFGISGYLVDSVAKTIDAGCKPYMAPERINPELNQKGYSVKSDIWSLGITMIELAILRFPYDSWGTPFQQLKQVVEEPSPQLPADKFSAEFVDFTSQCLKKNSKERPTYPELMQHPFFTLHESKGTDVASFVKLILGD
T2 sequence (Q9UQB9 whole entry): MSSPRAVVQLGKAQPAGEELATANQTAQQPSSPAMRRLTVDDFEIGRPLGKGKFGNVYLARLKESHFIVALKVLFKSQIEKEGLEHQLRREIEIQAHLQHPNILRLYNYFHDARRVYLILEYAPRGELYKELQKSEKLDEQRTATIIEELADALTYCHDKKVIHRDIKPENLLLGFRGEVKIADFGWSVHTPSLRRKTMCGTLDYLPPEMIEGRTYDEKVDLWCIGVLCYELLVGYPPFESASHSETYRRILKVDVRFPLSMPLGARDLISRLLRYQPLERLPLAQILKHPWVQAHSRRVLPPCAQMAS

Consider `Cc1cccc(-c2cnc3occ(-c4ccc(C(=O)O)c(C5CCCC5)c4)c3c2)c1` [SGC-CAMKK2-1 (YL-36)], for which the remaining binding at 1 µM in assay [1] worked out at 100%; in assay [2], 99%.
Consider `O=C(O)c1ccc(-c2coc3ncc(-c4ccccc4)cc23)cc1Cl` [SGC-CAMKK2-1N (UNC-YL-83)], for which the remaining binding at 1 µM in assay [3] worked out at 88%; in assay [4], 96%.
